The record followed here is patent publication US20110021565A1, “PIPERIDINE DERIVATIVES AS NK3 ANTAGONISTS” (priority 2007, published 2011).

Like-named read-outs stand apart in the source and are kept apart here.

In this assay the target is T1, recombinant human NK3 receptor (Homo sapiens, UniProt P29371).
T1 construct: expressed in transfected cells; host or cells: HEK293 cells, transient expression; membrane preparation
T1 sequence (P29371 1-465): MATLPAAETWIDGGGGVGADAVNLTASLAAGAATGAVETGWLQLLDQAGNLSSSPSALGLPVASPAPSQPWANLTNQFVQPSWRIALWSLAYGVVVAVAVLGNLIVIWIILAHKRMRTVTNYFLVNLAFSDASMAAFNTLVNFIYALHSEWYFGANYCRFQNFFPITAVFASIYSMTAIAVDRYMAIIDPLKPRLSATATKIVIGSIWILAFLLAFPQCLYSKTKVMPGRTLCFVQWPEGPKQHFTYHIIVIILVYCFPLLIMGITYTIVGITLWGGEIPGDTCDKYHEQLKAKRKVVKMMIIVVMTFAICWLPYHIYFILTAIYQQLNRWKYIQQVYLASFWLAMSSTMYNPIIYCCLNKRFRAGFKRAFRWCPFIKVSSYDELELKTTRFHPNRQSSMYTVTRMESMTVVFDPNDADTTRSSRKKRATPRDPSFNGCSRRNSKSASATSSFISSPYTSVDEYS
The experiment in a line: [3H]SR142801 competition binding assay. Put shortly: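 Ki derived by Cheng-Prusoff from Hill-fitted IC50 curves, duplicates, 10 μM SB222200 defining nonspecific binding. Radioligand used at KD concentration against compound at 0.0003-10 μM; transiently transfected HEK293 membranes, 5 μg/well, 75 min room temperature, Tris-HCl/MnCl2/phosphoramidon/BSA pH 7.4. Filter-bound counts read by scintillation.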

[1] abbreviates: [3H]SR142801, membranes of HEK293 cells transiently expressing recombinant human NK3 receptor, read-out: hNK3 Ki.
Setting [2] is: representative compounds, [3H]SR142801, HEK293 membranes, human NK3 receptor, read-out: Ki NK3 h.

Take `CN(Cc1ccc(Cl)c(C(F)(F)F)c1)C(=O)C(C)(CCN1CCC(N(C)S(C)(=O)=O)CC1)c1ccc(Cl)c(Cl)c1` (centres unmarked) [Example 46, N-(4-Chloro-3-trifluoromethyl-benzyl)-2-(3,4-dichloro-phenyl)-4-[4-(methanesulfonyl-methyl-amino)-piperidin-1-yl]-2,N-dimethyl-butyramide]: the inhibition constant (Ki) runs as follows: under setting [1], 2.4 nM; under setting [2], 2.4 nM.

With `CN(Cc1ccc(F)c(C(F)(F)F)c1)C(=O)C(C)(CCN1CCC(N(C)S(C)(=O)=O)CC1)c1ccc(Cl)c(Cl)c1` (centres unmarked) [Example 47, 2-(3,4-Dichloro-phenyl)-N-(4-fluoro-3-trifluoromethyl-benzyl)-4-[4-(methanesulfonyl-methyl-amino)-piperidin-1-yl]-2,N-dimethyl-butyramide], the inhibitory constant (Ki) amounted to 2.1 nM under setting [1] and 2.1 nM under setting [2].

For `CN(Cc1ccc(Cl)c(Cl)c1)C(=O)C(C)(CCN1CCC(N(C)S(C)(=O)=O)CC1)c1ccc(Cl)c(Cl)c1` (centres unmarked) [Example 48, N-(3,4-Dichloro-benzyl)-2-(3,4-dichloro-phenyl)-4-[4-(methanesulfonyl-methyl-amino)-piperidin-1-yl]-2,N-dimethyl-butyramide], the inhibition constant (Ki) worked out at 3.6 nM under setting [1] and 3.6 nM under setting [2].

Consider `CN(C1CCN(CCC(C)(C(=O)NC(c2ccccc2)C(F)(F)F)c2ccc(Cl)c(Cl)c2)CC1)S(C)(=O)=O` (centres unmarked) [Example 51, 2-(3,4-Dichloro-phenyl)-4-[4-(methanesulfonyl-methyl-amino)-piperidin-1-yl]-2-methyl-N-(2,2,2-trifluoro-1-phenyl-ethyl)-butyramide], for which the Ki under setting [1] is 18.7 nM.

On to `CN(C1CCN(CCC(C)(C(=O)NCc2ccccc2)c2ccc(Cl)c(Cl)c2)CC1)S(C)(=O)=O` (centres unmarked) [Example 52, N-Benzyl-2-(3,4-dichloro-phenyl)-4-[4-(methanesulfonyl-methyl-amino)-piperidin-1-yl]-2-methyl-butyramide], for which the Ki under setting [1] is 64.8 nM.

Consider `CN(Cc1ccc(C(F)(F)F)c(F)c1)C(=O)C(F)(CCN1CCC(N(C)S(C)(=O)=O)CC1)c1ccc(Cl)c(Cl)c1` (centres unmarked) [Example 53, 2-(3,4-Dichloro-phenyl)-2-fluoro-N-(3-fluoro-4-trifluoromethyl-benzyl)-4-[4-(methanesulfonyl-methyl-amino)-piperidin-1-yl]-N-methyl-butyramide], for which, under setting [1], the inhibition constant (Ki) came out at 18.3 nM.

Turning to `CN(Cc1ccc(Cl)c(C(F)(F)F)c1)C(=O)C(F)(CCN1CCC(N(C)S(C)(=O)=O)CC1)c1ccc(Cl)c(Cl)c1` (centres unmarked) [Example 54, N-(4-Chloro-3-trifluoromethyl-benzyl)-2-(3,4-dichloro-phenyl)-2-fluoro-4-[4-(methanesulfonyl-methyl-amino)-piperidin-1-yl]-N-methyl-butyramide], the inhibition constant Ki under setting [1] is 24.5 nM.

`CN(Cc1ccc(F)c(C(F)(F)F)c1)C(=O)C(F)(CCN1CCC(N(C)S(C)(=O)=O)CC1)c1ccc(Cl)c(Cl)c1` (centres unmarked) [Example 55, 2-(3,4-Dichloro-phenyl)-2-fluoro-N-(4-fluoro-3-trifluoromethyl-benzyl)-4-[4-(methanesulfonyl-methyl-amino)-piperidin-1-yl]-N-methyl-butyramide]: under setting [1], the Ki stood at 23.4 nM.

For the molecule `CN(Cc1ccc(Cl)c(Cl)c1)C(=O)C(F)(CCN1CCC(N(C)S(C)(=O)=O)CC1)c1ccc(Cl)c(Cl)c1` (centres unmarked) [Example 56, N-(3,4-Dichloro-benzyl)-2-(3,4-dichloro-phenyl)-2-fluoro-4-[4-(methanesulfonyl-methyl-amino)-piperidin-1-yl]-N-methyl-butyramide], under setting [1], the inhibition constant (Ki) was determined as 22.8 nM.

Turning to `CN(Cc1ccc(C(F)(F)F)c(F)c1)C(=O)C(C)(CCN1CCC(N(C2CC2)S(C)(=O)=O)CC1)c1ccc(Cl)c(Cl)c1` (centres unmarked) [Example 57, 4-[4-(Cyclopropyl-methanesulfonyl-amino)-piperidin-1-yl]-2-(3,4-dichloro-phenyl)-N-(3-fluoro-4-trifluoromethyl-benzyl)-2,N-dimethyl-butyramide], the Ki was found to be 5.9 nM under setting [1] and 5.9 nM under setting [2].

For the molecule `CN(Cc1ccc(Cl)c(C(F)(F)F)c1)C(=O)C(C)(CCN1CCC(N(C2CC2)S(C)(=O)=O)CC1)c1ccc(Cl)c(Cl)c1` (centres unmarked) [Example 58, N-(4-Chloro-3-trifluoromethyl-benzyl)-4-[4-(cyclopropyl-methanesulfonyl-amino)-piperidin-1-yl]-2-(3,4-dichloro-phenyl)-2,N-dimethyl-butyramide], the Ki under setting [1] came out at 3.6 nM and the inhibition constant (Ki) under setting [2] amounted to 3.6 nM.

In the case of `CN(Cc1ccc(F)c(C(F)(F)F)c1)C(=O)C(C)(CCN1CCC(N(C2CC2)S(C)(=O)=O)CC1)c1ccc(Cl)c(Cl)c1` (centres unmarked) [Example 59, 4-[4-(Cyclopropyl-methanesulfonyl-amino)-piperidin-1-yl]-2-(3,4-dichloro-phenyl)-N-(4-fluoro-3-trifluoromethyl-benzyl)-2,N-dimethyl-butyramide], the inhibitory constant (Ki) under setting [1] was found to be 4.3 nM and the inhibitory constant (Ki) under setting [2] came to 4.3 nM.

Consider `CN(Cc1ccc(Cl)c(Cl)c1)C(=O)C(C)(CCN1CCC(N(C2CC2)S(C)(=O)=O)CC1)c1ccc(Cl)c(Cl)c1` (centres unmarked) [Example 60, 4-[4-(Cyclopropyl-methanesulfonyl-amino)-piperidin-1-yl]-N-(3,4-dichloro-benzyl)-2-(3,4-dichloro-phenyl)-2,N-dimethyl-butyramide], for which the inhibition constant Ki stood at 2.6 nM under setting [1] and 2.6 nM under setting [2].

Regarding `CN(Cc1ccc(C(F)(F)F)c(F)c1)C(=O)C(F)(CCN1CCC(NS(C)(=O)=O)CC1)c1ccc(Cl)c(Cl)c1` (centres unmarked) [Example 61, 2-(3,4-Dichloro-phenyl)-2-fluoro-N-(3-fluoro-4-trifluoromethyl-benzyl)-4-(4-methanesulfonyl-amino-piperidin-1-yl)-N-methyl-butyramide], the Ki under setting [1] came out at 80 nM.

With `CN(Cc1ccc(Cl)cc1)C(=O)C(F)(CCN1CCC(NS(C)(=O)=O)CC1)c1ccc(Cl)c(Cl)c1` (centres unmarked) [Example 62, N-(4-Chloro-benzyl)-2-(3,4-dichloro-phenyl)-2-fluoro-4-(4-methanesulfonyl-amino-piperidin-1-yl)-N-methyl-butyramide], under setting [1], the Ki was found to be 105 nM.

In the case of `CN(Cc1ccc(Cl)c(C(F)(F)F)c1)C(=O)C(F)(CCN1CCC(NS(C)(=O)=O)CC1)c1ccc(Cl)c(Cl)c1` (centres unmarked) [Example 63, N-(4-Chloro-3-trifluoromethyl-benzyl)-2-(3,4-dichloro-phenyl)-2-fluoro-4-(4-methanesulfonyl-amino-piperidin-1-yl)-N-methyl-butyramide], the Ki under setting [1] stood at 117 nM.

As to `CN(Cc1ccc(F)c(C(F)(F)F)c1)C(=O)C(F)(CCN1CCC(NS(C)(=O)=O)CC1)c1ccc(Cl)c(Cl)c1` (centres unmarked) [Example 64, 2-(3,4-Dichloro-phenyl)-2-fluoro-N-(4-fluoro-3-trifluoromethyl-benzyl)-4-(4-methanesulfonyl-amino-piperidin-1-yl)-N-methyl-butyramide], the inhibition constant (Ki) under setting [1] was 122 nM.

Regarding `CN(Cc1cccc(Cl)c1)C(=O)C(F)(CCN1CCC(NS(C)(=O)=O)CC1)c1ccc(Cl)c(Cl)c1` (centres unmarked) [Example 65, N-(3-Chlorobenzyl)-2-(3,4-dichloro-phenyl)-2-fluoro-4-(4-methanesulfonyl-amino-piperidin-1-yl)-N-methyl-butyramide], the inhibition constant Ki under setting [1] worked out at 307 nM.

Take `CN(Cc1ccc(C(F)(F)F)cc1)C(=O)C(F)(CCN1CCC(NS(C)(=O)=O)CC1)c1ccc(Cl)c(Cl)c1` (centres unmarked) [Example 66, 2-(3,4-Dichloro-phenyl)-2-fluoro-4-(4-methanesulfonyl-amino-piperidin-1-yl)-N-methyl-N-(4-trifluoromethyl-benzyl)-butyramide]: the inhibition constant (Ki) under setting [1] was determined as 84.3 nM.

Turning to `Cc1ccc(CN(C)C(=O)C(F)(CCN2CCC(NS(C)(=O)=O)CC2)c2ccc(Cl)c(Cl)c2)cc1` (centres unmarked) [Example 67, 2-(3,4-Dichloro-phenyl)-2-fluoro-4-(4-methanesulfonyl-amino-piperidin-1-yl)-N-methyl-N-(4-methyl-benzyl)-butyramide], the inhibition constant Ki under setting [1] was found to be 323 nM.

As for `CN(Cc1ccccc1Cl)C(=O)C(F)(CCN1CCC(NS(C)(=O)=O)CC1)c1ccc(Cl)c(Cl)c1` (centres unmarked) [Example 68, N-(2-Chloro-benzyl)-2-(3,4-dichloro-phenyl)-2-fluoro-4-(4-methanesulfonyl-amino-piperidin-1-yl)-N-methyl-butyramide], the Ki under setting [1] was 159 nM.

On to `CCN(C1CCN(CCC(C)(C(=O)N(C)Cc2ccc(C(F)(F)F)c(F)c2)c2ccc(Cl)c(Cl)c2)CC1)S(C)(=O)=O` (centres unmarked) [Example 69, 2-(3,4-Dichloro-phenyl)-4-[4-(ethyl-methanesulfonyl-amino)-piperidin-1-yl]-N-(3-fluoro-4-trifluoromethyl-benzyl)-2,N-dimethyl-butyramide], for which the inhibition constant Ki runs as follows: under setting [1], 2.4 nM; under setting [2], 2.4 nM.

With `CCN(C1CCN(CCC(C)(C(=O)N(C)Cc2ccc(Cl)c(Cl)c2)c2ccc(Cl)c(Cl)c2)CC1)S(C)(=O)=O` (centres unmarked) [Example 70, N-(3,4-Dichloro-benzyl)-2-(3,4-dichloro-phenyl)-4-[4-(ethyl-methanesulfonyl-amino)-piperidin-1-yl]-2,N-dimethyl-butyramide], the Ki under setting [1] stood at 1.2 nM and the inhibition constant Ki under setting [2] was found to be 1.2 nM.

In general, Ki refers to the equilibrium dissociation constant of an inhibitor or competing ligand from its target.
